In article PMC4492732 (Pharmacology Research & Perspectives, 2015):

How the values were obtained:
[1] = after i.v. (R,S)-Ket; ref Cohen et al. [1973]; cited from earlier work
[2] = organic phase relative to aqueous phase; ref Leung and Baillie ([1986]); cited from earlier work
[3] = rat, ref Leung and Baillie ([1986]), cited from earlier work; for increased spontaneous locomotor activity: postanesthetic recovery phase
Incubation of = assay type: in vitro ADME, Wistar rat; details: 0.1, 1 and 10 μmol/L; 1 mg/mL S9, NADPH; up to 120 min; data not shown
[4] = Plasma concentrations of Ket and; assay type: in vivo, Wistar rat; details: after i.v. 20 mg/kg (R)-Ket, n = 3, ±SD
[5] = Brain tissue concentrations of Ket and; details: for ratio of brain tissue concentration: plasma concentration 10 min / Brain tissue concentration 10 min / ratio of brain tissue concentration: plasma concentration 20 min / Brain tissue concentration 20 min / ratio of brain tissue concentration: plasma concentration 60 min / Brain tissue concentration 60 min: after i.v. 20 mg/kg (R)-Ket; for Brain tissue concentration 10 min / Brain tissue concentration 20 min / Brain tissue concentration 60 min: n = 3, ±SD
[6] = biological target: α7-nicotinic acetylcholine receptor; details: ref Moaddel et al. [2013]; cited from earlier work
[7] = Pharmacokinetic parameters for; assay type: in vivo, Wistar rat; details: metabolite after single i.v. 40 mg/kg (R,S)-Ket

For `CNC1(c2ccccc2Cl)CCCCC1=O` (racemic) [(R,S)-Ket, ketamine, reference compound], the “time to peak brain tissue concentrations” value [1] is listed as “less than 1 min”, the “relative hydrophobicity from partition coefficients” value [2] is listed as “slightly more hydrophobic” and the “increased spontaneous locomotor activity” value [3] is listed as 25 min. For the same compound, the duration of anesthesia [3] was 7 min and the “Ket metabolites formed in incubates” value (Incubation of) was “did not contain any known Ket metabolites”.

For `NC1(c2ccccc2Cl)CCCCC1=O` (racemic) [(R,S)-norKet, (R,S)-norketamine], the “increased spontaneous locomotor activity” value [3] is listed as 7 min and the duration of anesthesia [3] is listed as 3 min.

For `N[C@@]1(c2ccccc2Cl)CCC[C@H](O)C1=O` [(2R,6S)-HNK], the “Plasma concentration 10 min” value [4] was 222 ± 29 ng/mL, the “Plasma concentration 20 min” value [4] was 96 ± 6 ng/mL and the “Plasma concentration 60 min” value [4] was 35 ± 6 ng/mL. For the same compound, the “ratio of brain tissue concentration: plasma concentration 10 min” value [5] was “(0.6)”, the “Brain tissue concentration 10 min” value [5] was 141 ± 20 ng/g tissue and the “ratio of brain tissue concentration: plasma concentration 20 min” value [5] was “(0.8)”. The “Brain tissue concentration 20 min” value [5] was 78 ± 37 ng/g tissue, the “ratio of brain tissue concentration: plasma concentration 60 min” value [5] was “(1.4)” and the “Brain tissue concentration 60 min” value [5] was 48 ± 28 ng/g tissue. The “average ratio of brain tissue concentration to plasma concentration” value ([5]; after i.v. (S)-Ket or (R)-Ket, respectively, over the first 20 min post administration) was about 1.

In the case of `NC1(c2ccccc2Cl)CCC=CC1=O` (racemic) [(R,S)-DHNK, (R,S)-dehydronorketamine], the IC50 [6] is given as under 100 nM.

In the case of `N[C@@]1(c2ccccc2Cl)CCC[C@@H](O)C1=O` [(2S,6S;2R,6R)-HNK, (2S,6S;2R,6R)-hydroxynorketamine], the t1/2 [7] is listed as 9.5 ± 5.4 h, the IC50 [6] is listed as under 100 nM and the “relative hydrophobicity from partition coefficients” value [2] is listed as “significantly less lipophilic”. For the same compound, the “increased spontaneous locomotor activity” value [3] was “no effect” and the duration of anesthesia [3] was “no effect”.

With `CN[C@@]1(c2ccccc2Cl)CCCCC1=O` [(R)-Ket, (R)-ketamine, reference compound] the “Plasma concentration 10 min” value [4] was 3430 ± 400 ng/mL, the “Plasma concentration 20 min” value [4] was 1420 ± 103 ng/mL and the “Plasma concentration 60 min” value [4] was 498 ± 116 ng/mL. The “ratio of brain tissue concentration: plasma concentration 10 min” value [5] was “(4.8)”, the “Brain tissue concentration 10 min” value [5] was 16,365 ± 1931 ng/g tissue and the “ratio of brain tissue concentration: plasma concentration 20 min” value [5] was “(6.1)”. For the same compound, the “Brain tissue concentration 20 min” value [5] was 8715 ± 4433 ng/g tissue, the “ratio of brain tissue concentration: plasma concentration 60 min” value [5] was “(10.5)” and the “Brain tissue concentration 60 min” value [5] was 5224 ± 3391 ng/g tissue.

For `N[C@@]1(c2ccccc2Cl)CCC[C@@H](O)C1=O` [(2R,6R)-HNK, (2R,6R)-hydroxynorketamine], the “Plasma concentration 10 min” value [4] was 345 ± 115 ng/mL, the “Plasma concentration 20 min” value [4] was 316 ± 58 ng/mL and the “Plasma concentration 60 min” value [4] was 200 ± 24 ng/mL. The “Brain tissue concentration 10 min” value [5] was 274 ± 47 ng/g tissue, the “Brain tissue concentration 20 min” value [5] was 191 ± 50 ng/g tissue and the “Brain tissue concentration 60 min” value [5] was 156 ± 34 ng/g tissue.
